# Source: patent publication US9850225B2, “Compounds useful as immunomodulators” (BRISTOL-MYERS SQUIBB COMPANY, priority 2014, dated 2017)
# Target: PD-1/PD-L1 interaction (PD-1-Ig / PD-L1-His) (Homo sapiens (Human), UniProt Q9NZQ7)
# Assay: PD-1/PD-L1 Homogenous Time-Resolved Fluorescence (HTRF) binding assay
# Conditions: PD-1/PD-L1 HTRF binding assay; value given as range class; read-out: Range or IC50
# In short: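 HTRF detection used 1 nM europium-cryptate anti-Ig and 20 nM APC anti-His. Compounds first saw 10 nM PD-L1-His for 15 min, and 20 nM PD-1-Ig was then added for another 15 min. Buffer was dPBS plus 0.1% BSA and 0.05% Tween-20. All concentrations are final.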
# PD-1/PD-L1 interaction (PD-1-Ig / PD-L1-His), sequence (Q9NZQ7 other isoform, or with tags, fused parts or gaps): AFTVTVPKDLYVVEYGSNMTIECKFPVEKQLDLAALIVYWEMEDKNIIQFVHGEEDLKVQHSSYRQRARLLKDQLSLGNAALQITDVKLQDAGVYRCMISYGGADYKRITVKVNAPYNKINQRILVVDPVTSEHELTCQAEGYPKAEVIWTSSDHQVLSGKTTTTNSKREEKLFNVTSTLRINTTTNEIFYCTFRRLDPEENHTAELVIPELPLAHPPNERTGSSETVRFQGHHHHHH
row,Structure (SMILES),IC50
1,"Cc1c(COc2cc(OCc3cncc(C#N)c3)c(CN[C@@H](CCCCN)C(=O)O)cc2Cl)cccc1-c1ccc2c(c1)OCCO2 [Example 2004, (S)-6-amino-2-((5-chloro-2-((5-cyanopyridin-3-yl)methoxy)-4-((3-(2,3-dihydrobenzo[b][1,4]dioxin-6-yl)-2-methylbenzyl)oxy)benzyl)amino)hexanoic acid]",0.0006 to 0.01 µM
2,"CC(=O)NCCNCc1ccc(OCc2cccc(-c3ccccc3)c2C)cc1OCc1ccc(Cl)c(Cl)c1 [Example 1069, N-(2-((2-((3,4-dichlorobenzyl)oxy)-4-((2-methyl-[1,1′-biphenyl]-3-yl)methoxy)benzyl)amino)ethyl)acetamide]",0.1 to 20 µM
3,"CC(=O)NCCNCc1ccc(OCc2cccc(-c3ccccc3)c2C)cc1OCc1cccc(Oc2ccc(F)cc2)c1 [Example 1078, N-(2-((2-((3-(4-fluorophenoxyl)benzyl)oxy)-4-((2-methyl-[1,1′-biphenyl]-3-yl)methoxy)benzyl)amino)ethyl)acetamide]",0.1 to 20 µM
4,"Cc1c(COc2ccc(CN[C@H](CO)C(=O)O)c(OCc3ccc(F)c(C#N)c3)c2)cccc1-c1ccccc1 [Example 1332, (R)-2-((2-((3-cyano-4-fluorobenzyl)oxy)-4-((2-methyl-[1,1′-biphenyl]-3-yl)methoxy)benzyl)amino)-3-hydroxypropanoic acid]",0.0006 to 0.01 µM
5,Cc1c(COc2cc(OCc3cncc(C#N)c3)c(CN[C@H](CO)C(=O)O)cc2F)cccc1-c1ccc2c(c1)OCCO2 [Example 3000],0.0006 to 0.01 µM
6,"Cc1c(COc2ccc(CN[C@@H](C(=O)O)[C@@H](C)O)c(OCc3cccc(C#N)c3)c2)cccc1-c1ccc2c(c1)OCCO2 [Example 1125, (2R,3R)-2-((2-((3-cyanobenzyl)oxy)-4-((3-(2,3-dihydrobenzo[b][1,4]dioxin-6-yl)-2-methylbenzyl)oxy)benzyl)amino)-3-hydroxybutanoic acid]",0.0006 to 0.01 µM
7,"CC(=O)NCCNCc1ccc(OCc2cccc(-c3ccccc3)c2C)cc1OCc1ccccc1F [Example 1048, N-(2-((2-((2-fluorobenzyl)oxy)-4-((2-methyl-[1,1′-biphenyl]-3-yl)methoxy)benzyl)amino)ethyl)acetamide]",0.1 to 20 µM
8,"Cc1cc(OCc2cccc(-c3ccc4c(c3)OCCO4)c2C)cc(OCc2cccc(C#N)c2)c1CN[C@H](CO)C(=O)O [Example 1002, (R)-2-(2-(3-cyanobenzyloxy)-4-(3-(2,3-dihydrobenzo[b][1,4]dioxin-6-yl)-2-methylbenzyloxy)-6-methylbenzylamino)-3-hydroxypropanoic acid]",0.0006 to 0.01 µM
9,"N#Cc1cccc(COc2cc(OCc3cccc(-c4ccc5c(c4)OCCO5)c3Cl)ccc2CN[C@H](CO)C(=O)O)c1 [Example 1146, (R)-2-(4-(2-chloro-3-(2,3-dihydrobenzo[b][1,4]dioxin-6-yl)benzyloxy)-2-(3-cyanobenzyloxy)benzylamino)-3-hydroxypropanoic acid]",0.0006 to 0.01 µM
10,"Cc1cc(CN[C@](C)(CO)C(=O)O)c(OCc2cncc(C#N)c2)cc1OCc1cccc(-c2ccc3c(c2)OCCO3)c1Cl [Example 1156, (R)-2-(4-(2-chloro-3-(2,3-dihydrobenzo[b][1,4]dioxin-6-yl)benzyloxy)-2-((5-cyanopyridin-3-yl)methoxy)-5-methylbenzylamino)-3-hydroxy-2-methylpropanoic acid]",0.0006 to 0.01 µM
11,"COc1cc(OCc2cccc(-c3ccccc3)c2C)cc(OCc2cccc(C#N)c2)c1CN[C@H](C(=O)O)[C@H](C)O [Example 1136, (2S,3S)-2-((2-((3-cyanobenzyl)oxy)-6-methoxy-4-((2-methyl-[1,1′-biphenyl]-3-yl)methoxy)benzyl)amino)-3-hydroxybutanoic acid]",0.0006 to 0.01 µM
12,"CCCOc1cc(OCc2cccc(-c3ccccc3)c2C)ccc1CNCCNC(C)=O [Example 1027, N-(2-((4-((2-methyl-[1,1′-biphenyl]-3-yl)methoxy)-2-propoxybenzyl)amino)ethyl)acetamide]",0.1 to 20 µM
13,"CC(=O)NCCNCc1ccc(OCc2cccc(-c3ccccc3)c2C)cc1OCc1ccc(OC(F)F)cc1 [Example 1088, N-(2-((2-((4-(difluoromethoxy)benzyl)oxy)-4-((2-methyl-[1,1′-biphenyl]-3-yl)methoxy)benzyl)amino)ethyl)acetamide]",0.1 to 20 µM
14,"N#Cc1cccc(COc2cc(OCc3cccc(-c4ccc5c(c4)OCCO5)c3Cl)ccc2CN2CCCC[C@H]2C(=O)O)c1 [Example 1145, (S)-1-(4-(2-chloro-3-(2,3-dihydrobenzo[b][1,4]dioxin-6-yl)benzyloxy)-2-(3-cyanobenzyloxyl)benzyl)piperidine-2-carboxylic acid]",0.01 to 0.1 µM
15,"CC(=O)NCCNCc1ccc(OCc2cccc(-c3ccccc3)c2C)cc1OCc1cc(F)cc(C(F)(F)F)c1 [Example 1081, N-(2-((2-((3-fluoro-5-(trifluoromethyl)benzyl)oxy)-4-((2-methyl-[1,1′-biphenyl]-3-yl)methoxy)benzyl)amino)ethyl)acetamide]",0.1 to 20 µM
16,"Cc1cc(CN[C@@](C)(CO)C(=O)O)c(OCc2cccnc2)cc1OCc1cccc(-c2ccc3c(c2)OCCO3)c1C [Example 1280, (S)-2-((4-((3-(2,3-dihydrobenzo[b][1,4]dioxin-6-yl)-2-methylbenzyl)oxy)-5-methyl-2-(pyridin-3-ylmethoxy)benzyl)amino)-3-hydroxy-2-methylpropanoic acid]",0.0006 to 0.01 µM
17,"Cc1cc(CN2CCCC[C@H]2C(=O)O)c(OCc2cncc(C#N)c2)cc1OCc1cccc(-c2ccc3c(c2)OCCO3)c1Cl [Example 1152, (S)-1-(4-(2-chloro-3-(2,3-dihydrobenzo[b][1,4]dioxin-6-yl)benzyloxy)-2-((5-cyanopyridin-3-yl)methoxy)-5-methylbenzyl)piperidine-2-carboxylic acid]",0.0006 to 0.01 µM
18,"COc1cc(OCc2cccc(-c3ccc4c(c3)OCCO4)c2C)cc(OCc2cccc(C#N)c2)c1CNC[C@@H](O)CC(=O)O [Example 1140, (S)-4-((2-((3-cyanobenzyl)oxy)-4-((3-(2,3-dihydrobenzo[b][1,4]dioxin-6-yl)-2-methylbenzyl)oxy)-6-methoxybenzyl)amino)-3-hydroxybutanoic acid]",0.0006 to 0.01 µM
19,CC(=O)NCCNCc1ccc(OCc2cccc(-c3ccccc3)c2C)cc1OCc1cc(Cl)ccc1F [Example 1109],0.1 to 20 µM
20,"Cc1cc(CNCCO)c(OCc2cncc(C#N)c2)cc1OCc1cccc(-c2ccc3c(c2)OCCO3)c1Cl [Example 1151, 5-((5-(2-chloro-3-(2,3-dihydrobenzo[b][1,4]dioxin-6-yl)benzyloxy)-2-((2-hydroxyethylamino)methyl)-4-methylphenoxy)methyl)nicotinonitrile]",0.0006 to 0.01 µM
21,"Cc1cc(CN2CCCC[C@H]2C(=O)O)c(OCc2ccc(F)c(C#N)c2)cc1OCc1cccc(-c2ccc3c(c2)OCCO3)c1C [Example 1272, (S)-1-(2-((3-cyano-4-fluorobenzyl)oxy)-4-((3-(2,3-dihydrobenzo[b][1,4]dioxin-6-yl)-2-methylbenzyl)oxy)-5-methylbenzyl)piperidine-2-carboxylic acid]",0.0006 to 0.01 µM
22,"CC(=O)NCCNCc1ccc(OCc2cccc(-c3ccccc3)c2C)cc1OCc1ccc(Cl)cc1 [Example 1068, N-(2-((2-((4-chlorobenzyl)oxy)-4-((2-methyl-[1,1′-biphenyl]-3-yl)methoxy)benzyl)amino)ethyl)acetamide]",0.1 to 20 µM
23,"Cc1c(COc2ccc(CN[C@@H](CO)CC(=O)O)c(OCc3cccc(C#N)c3)c2)cccc1-c1ccccc1 [Example 1022, (R)-3-((2-((3-cyanobenzyl)oxy)-4-((2-methyl-[1,1′-biphenyl]-3-yl)methoxy)benzyl)amino)-4-hydroxybutanoic acid]",0.0006 to 0.01 µM
24,"CC(=O)NCCNCc1ccc(OCc2cccc(-c3ccccc3)c2C)cc1OCc1cccc(OC(F)F)c1 [Example 1116, N-(2-((2-((3-(difluoromethoxy)benzyl)oxy)-4-((2-methyl-[1,1′-biphenyl]-3-yl)methoxy)benzyl)amino)ethyl)acetamide]",0.1 to 20 µM
25,"Cc1c(COc2cc(OCc3cccc(C#N)c3)c(CNCc3nnn[nH]3)cc2Cl)cccc1-c1ccc2c(c1)OCCO2 [Example 1229, 3-((2-((((1H-tetrazol-5-yl)methyl)amino)methyl)-4-chloro-5-((3-(2,3-dihydrobenzo[b][1,4]dioxin-6-yl)-2-methylbenzyl)oxy)phenoxy)methyl)benzonitrile]",0.0006 to 0.01 µM
26,"Cc1c(COc2cc(OCc3cccc(C#N)c3)c(CN[C@@](C)(CO)C(=O)O)cc2Cl)cccc1-c1ccc2c(c1)OCCO2 [Example 1245, (S)-2-((5-chloro-2-((3-cyanobenzyl)oxy)-4-((3-(2,3-dihydrobenzo[b][1,4]dioxin-6-yl)-2-methylbenzyl)oxy)benzyl)amino)-3-hydroxy-2-methylpropanoic acid]",0.0006 to 0.01 µM
27,"Cc1c(COc2cc(OCc3cccc(C#N)c3)c(CN3CCSC[C@@H]3C(=O)O)cc2Cl)cccc1-c1ccc2c(c1)OCCO2 [Example 1222, (S)-4-(5-chloro-2-((3-cyanobenzyl)oxy)-4-((3-(2,3-dihydrobenzo[b][1,4]dioxin-6-yl)-2-methylbenzyl)oxy)benzyl)thiomorpholine-3-carboxylic acid]",0.01 to 0.1 µM
28,"Cc1c(COc2cc(OCc3ccccc3)c(CN3CCCC[C@H]3C(=O)O)cc2Cl)cccc1-c1ccc2c(c1)OCCO2 [Example 3028, (S)-1-(2-(benzyloxy)-5-chloro-4-((3-(2,3-dihydrobenzo[b][1,4]dioxin-6-yl)-2-methylbenzyl)oxy)benzyl)piperidine-2-carboxylic acid]",0.1 to 20 µM
29,"Cc1c(COc2cc(OCc3cccc(C#N)c3)c(CN[C@@H](Cc3cn(Cc4ccccc4)cn3)C(=O)O)cc2Cl)cccc1-c1ccc2c(c1)OCCO2 [Example 1186, (S)-3-(1-benzyl-1H-imidazol-4-yl)-2-((5-chloro-2-((3-cyanobenzyl)oxy)-4-((3-(2,3-dihydrobenzo[b][1,4]dioxin-6-yl)-2-methylbenzyl)oxy)benzyl)amino)propanoic acid]",0.0006 to 0.01 µM
